# In PMC10935558, “In vitro and in silico studies reveal antidiabetic properties of arylbenzofurans from the root bark of Morus mesozygia Stapf” (Frontiers in Pharmacology, 2024):
# “And” between values parts separate entries of the source, which are not always exact repeats. Equal values may be shown once.
# Tests used:
# [1] = molecular target: Saccharomyces cerevisiae α-glucosidase; assay: In-vitro α-glucosidase inhibition assay; type: biochemical; settings: for IC50: n = 5 independent experiments in duplicate, read-out: α-glucosidase IC50 (range)
# Procedure: The α-glucosidase activity assay was carried out as described previously ([Günther et al., 2021]). Briefly, 10 mM stock solutions of the arylbenzofurans (1—3) prepared in DMSO were diluted in water. Fifteen µl of these diluted moracin compounds were mixed in 96-well microtest plates (VWR, Darmstadt, Germany) with 105 μL of 0.1 M phosphate buffer, pH 6.8 and 15 μL of a 0.5 U/mL Saccharomyces cerevisiae α-glucosidase solution (Sigma-Aldrich, Taufkirchen, Germany). The final arylbenzofurans concentrations range from 0–200 μM, while the final concentration of the extract and fractions ranges from 100–500 μg/mL. […] Following 5 min pre-incubation at 37°C, the reaction was started with 15 μL of 10 mM p-nitrophenyl-α-D-glucopyranoside (Sigma-Aldrich, Taufkirchen, Germany). After 20 min at 37 °C, 50 μL 2 M Na2CO3 stop solution was added (VWR, Darmstadt, Germany). The absorbance was measured photometrically at 405 nm (iEMS Reader MF). Five independent experiments were performed in duplicate.
# (§1) GraphPad Prism, version 5.0 was used for the statistical analysis of data, which were expressed as mean ± standard deviation. Multiple comparisons of IC50 values were carried out by using one-way ANOVA followed by Tukey’s test.
# [2] = molecular target: T1, human recombinant DPP4 enzyme (Homo sapiens, UniProt P27487); assay: In-vitro dipeptidyl peptidase-4 (DPP4) inhibition assay (inhibitor screening kit); type: biochemical
# T1 construct: purchased abcam, Berlin, Germany
# T1 sequence (P27487 whole entry): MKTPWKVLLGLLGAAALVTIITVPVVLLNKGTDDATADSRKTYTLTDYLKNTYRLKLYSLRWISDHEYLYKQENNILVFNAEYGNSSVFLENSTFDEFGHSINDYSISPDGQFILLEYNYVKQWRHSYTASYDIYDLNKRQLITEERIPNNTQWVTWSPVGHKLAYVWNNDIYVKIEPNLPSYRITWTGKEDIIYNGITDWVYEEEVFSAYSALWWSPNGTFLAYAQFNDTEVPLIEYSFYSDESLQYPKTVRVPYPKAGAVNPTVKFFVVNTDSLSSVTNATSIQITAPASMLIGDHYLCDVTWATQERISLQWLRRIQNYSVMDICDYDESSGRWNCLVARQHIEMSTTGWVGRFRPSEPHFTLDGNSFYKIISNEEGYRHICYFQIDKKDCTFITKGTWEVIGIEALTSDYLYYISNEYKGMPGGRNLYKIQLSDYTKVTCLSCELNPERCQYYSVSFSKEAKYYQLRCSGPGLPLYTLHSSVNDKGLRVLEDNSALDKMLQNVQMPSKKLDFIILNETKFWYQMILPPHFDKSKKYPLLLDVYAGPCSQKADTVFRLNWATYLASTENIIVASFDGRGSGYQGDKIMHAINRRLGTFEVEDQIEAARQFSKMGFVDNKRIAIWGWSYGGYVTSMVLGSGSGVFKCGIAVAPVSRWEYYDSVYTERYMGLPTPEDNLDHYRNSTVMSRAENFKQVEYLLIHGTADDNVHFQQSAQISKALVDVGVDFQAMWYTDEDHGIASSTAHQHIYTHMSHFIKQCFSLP
# Procedure: The DPP4 inhibitor activities of the three moracins were determined by using the DPP4 inhibitor screening kit following the manufacturer’s instructions (abcam, Berlin, Germany). The established DPP4 inhibitor sitagliptin served as the positive inhibitor control, whereas assay buffer was only used as the control for DPP4 enzyme activity and was set to 100%. 30 μL of assay buffer and 10 μL human recombinant DPP4 enzyme were mixed in 96-well microtiter plates with 10 μL of 0.1- or 1-mM moracin solutions, 1 mM sitagliptin, or assay buffer. Following 10 min pre-incubation at 37°C, 50 μL of substrate solution was added to each well. The fluorescence signal (excitation wavelength of 360 nm, emission wavelength of 465 nm) was measured after 30 min incubation at 37°C (Tecan Infinite 200 micro-plate reader).
# as §1, with “test. For the DPP4 inhibition results, a one-way ANOVA followed by Dunnett’s post-hoc test was conducted to compare the means of treatment groups to that of the control group without inhibitor.” for “test.”
# [3] = molecular target: T2, porcine pancreatic α-amylase (Sus scrofa, UniProt P00690); assay: In-vitro α-amylase inhibition assay; type: biochemical; settings: n = 2 independent experiments in duplicate; read-out: α-amylase IC50 (range)
# T2 sequence (P00690 16-511): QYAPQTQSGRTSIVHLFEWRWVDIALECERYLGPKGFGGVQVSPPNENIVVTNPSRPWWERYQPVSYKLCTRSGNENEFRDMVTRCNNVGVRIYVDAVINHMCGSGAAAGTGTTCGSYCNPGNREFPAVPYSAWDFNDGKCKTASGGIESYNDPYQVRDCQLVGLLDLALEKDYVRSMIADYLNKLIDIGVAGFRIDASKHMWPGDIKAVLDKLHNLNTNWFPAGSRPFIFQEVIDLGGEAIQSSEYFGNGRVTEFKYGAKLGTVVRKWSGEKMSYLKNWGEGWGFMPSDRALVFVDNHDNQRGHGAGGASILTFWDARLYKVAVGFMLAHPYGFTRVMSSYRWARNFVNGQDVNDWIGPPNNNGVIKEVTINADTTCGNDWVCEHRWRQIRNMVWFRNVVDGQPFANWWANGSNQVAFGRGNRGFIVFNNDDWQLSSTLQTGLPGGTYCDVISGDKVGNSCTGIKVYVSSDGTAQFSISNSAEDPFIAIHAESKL
# Procedure: To this end, moracins, extracts, and fraction stocks were diluted with water to give concentrations of 1,000 and 3,000 μg/mL. Of these dilutions, 15 μL were mixed with 35 µL distilled H2O and 50 μL of porcine pancreatic α-amylase (2.5 U/mL) in 20 mM sodium phosphate buffer containing 6.7 mM NaCl, pH 6.9. Following 10 min pre-incubation at 25°C, 50 μL 1% starch solution that had been cooked for 15 min in the same buffer was added to start the reaction. After 10 min at 25°C, 100 μL of a color reagent (1% 3,5-dinitrosalicylic acid and 30% sodium potassium tartrate in 0.4 M NaOH, all chemicals from Sigma-Aldrich, Taufkirchen, Germany) were added. The mixture was incubated for an additional 5 min at 100 °C and cooled to room temperature before the absorbance was measured at 540 nm by a microplate reader (iEMS Reader MF, MTX Lab Systems, Helsinki, Finland). […] The percentage inhibition of α-amylase was calculated by using the following equation: Inhibition%=AbC−AbCblank−AbS−AbSblank/AbC−AbCblank×100 AbC, absorbance of the control; AbS, absorbance of the sample.
# as §1
# H9c2 cells = tested on: H9c2 cells; design: method as in Zheng et al., 2017; settings: doxorubicin-induced myocardial toxicity in H9c2 cells; ref Zheng et al., 2017; read-out: EC50 cytoprotective effect; cited from earlier work
# [4] = tested on: chronic hepatitis C virus (HCV) cell; design: method as in Hyun et al., 2007; settings: antiviral assay; ref Hyun et al., 2007; read-out: IC50 against HCV cell; cited from earlier work
# [5] = tested on: protein tyrosine phosphatase 1B (PTP1B); design: method as in Cui et al., 2006; settings: ref Cui et al., 2006; cited from earlier work
Compound,IC50 [1],DPP4 inhibition (in words) [2],"inhibition at 100 µM ([2]; at 100 μM, read-out: inhibitory activity against DPP4) [%]",IC50 [3] [µM],EC50 (H9c2 cells) [µM],IC50 [4] [µM],inhibitory effect against PTP1B (in words) [5],fold less potent than 1 and 2 (α-glucosidase) [1] [fold],residual peptidase (DPP4) activity compared to control ([2]; at 100 μM) [%]
"CC(C)(O)CCc1c(O)ccc2cc(-c3cc(O)cc(O)c3)oc12 [Compound 1, 5-(6-hydroxy-7-(3-hydroxy-3-methylbutyl)benzofuran-2-yl)benzene-1,3-diol]",~17 µM and 16.9 µM,moderate inhibitors,15,> 300,–,–,–,–,–
"CC1(C)Oc2cc3oc(-c4cc(O)cc(O)c4)cc3cc2C[C@H]1O [Compound 2, Moracin P]",~17 µM and 16.6 µM,–,–,> 300,8.8,42.9,marginal inhibitory effect,–,–
"Oc1cc(O)cc(-c2cc3ccc(O)cc3o2)c1 [Compound 3, Moracin M]",40.9 µM,moderate inhibitors,–,> 300,–,> 100,–,~2.4,62.7
